Among the data in US6909000B2, “Bridged bicyclic serine protease inhibitors” (Vertex Pharmaceuticals Incorporated, priority 2001, dated 2005) are IC50 and Ki values, retold here.

Usually Ki stands for the equilibrium dissociation constant of an inhibitor or competing ligand from its target.

Where two headings read alike, the source gives them in different places.

Assay [1] deals with Cells containing hepatitis C virus (HCV) replicon. The assay can be described thus: HCV replicon cell assay, Taqman real-time RT-PCR of HCV RNA level. Format: cell-based. Particulars: read-out: IC50 (concentration at which 50% inhibition of HCV RNA level is observed). Here is the method:
As set forth above, the compounds of this invention are capable of inhibiting the activity of HCV NS3-NS4A protease. In order to quantitate the activity of the compounds of this invention, cells containing HCV replicon were incubated with the compounds of this invention, and a Taqman Real Time PCR assay was conducted to determine the percentage inhibition of HCV RNA level and the IC50 were calculated therefrom. The result are shown below in Table 1:
Cells containing hepatitis C virus (HCV) replicon were maintained in DMEM containing 10% fetal bovine serum (FBS), 0.25 mg per ml of G418, with appropriate supplements (media A).
On day 1, replicon cell monolayer was treated with a trypsin:EDTA mixture, removed, and then dilutedh media A into a final concentration of 100,000 cells per ml wit. 10,000 cells in 100 ul are plated into each well of a 96-well tissue culture plate, and culture overnight in a tissue culture incubator at 37° C.
On day 2, compounds (in 100% DMSO) were serially diluted into DMEM containing 2% FBS, 0.5% DMSO, with appropriate supplements (media B). The final concentration of DMSO was maintained at 0.5% throughout the dilution series.
The media on the replicon cell monolayer was removed, and then media B containing various concentrations of compounds was added. Media B without any compound was added to other wells as no compound controls.
Cells were incubated with compound or 0.5% DMSO in media B for 48 hours in a tissue culture incubator at 37° C.
At the end of the 48-hour incubation, the media was removed, and the replicon cell monolayer was washed once with PBS and stored at −80° C. prior to RNA extraction.
Culture plates with treated replicon cell monolayers were thawed, and a fixed amount of another RNA virus, such as Bovine Viral Diarrhea Virus (BVDV) was added to cells in each well. RNA extraction reagents (such as reagents from RNeasy kits) were added to the cells immediately to avoid degradation of RNA. Total RNA was extracted according the instruction of manufacturer with modification to improve extraction efficiency and consistency. Finally, total cellular RNA, including HCV replicon RNA, was eluted and stored at −80° C. until further processing.
A Taqman real-time RT-PCR quantification assay was set up with two sets of specific primers and probe. One was for HCV and the other was for BVDV. Total RNA extractants from treated HCV replicon cells were added to the PCR reactions for quantification of both HCV and BVDV RNA in the same PCR well. Experimental failure was flagged and rejected based on the level of BVDV RNA in each well. The level of HCV RNA in each well was calculated according to a standard curve that is run in the same PCR plate. The percentage of inhibition or decrease of HCV RNA level due to compound treatment was calculated using the DMSO or no compound control as 0% of inhibition. The IC50 (concentration at which 50% inhibition of HCV RNA level is observed) was calculated from the titration curve of any given compound.
On the technique in general: In antiviral work, replicon cells carry a viral genome segment that copies itself.

Another assay concerns the target HCV NS3-NS4A protease (Hepatitis C virus genotype 1a, UniProt P27958). The assay can be described thus: Ki determination, HPLC microbore assay with 5AB peptide substrate, tNS3 and KK4A cofactor. The format is biochemical. Here is the method:
The Ki determinations were performed as follows. The Ki values for some compounds of the present invention are recited above in Table 1.
HPLC Microbore Method for Separation of 5AB Substrate and Products Substrate
NH2-Glu-Asp-Val-Val-(alpha)Abu-Cys-Ser-Met-Ser-Tyr-COOH Stock solution of 20 mM 5AB was made in DMSO w/0.2M DTT. This was stored in aliquots at −20 C.
Buffer: 50 mM HEPES, pH 7.8; 20% glycerol; 100 mM NaCl Total assay volume was 200 μL
The buffer was combined with KK4A, DTT, and tNS3; 177 μL of this solution was distributed each into wells of 96 well plate and incubated at 30° C. for ˜5-10 min. 3 μL of appropriate concentration of test compound dissolved in DMSO (DMSO only for control) was added to each well and incubate at 30° C. for 15 min. Reaction was initiated by addition of 20 μL of 200 μM 5AB substrate (20 μM concentration is equivalent or slightly lower than the Km for 5AB) and incubated for 20 min at 30° C. The reaction was terminated by addition of 50 μL of 10% TFA 200 μL aliquots were transferred to HPLC vials The SMSY product was isolated from substrate and KK4A by the method which follows. Microbore Separation Method • Instrumentation: • Hewlett Packard 1100 • Degasser G1322A • Binary pump G1312A • Autosampler G1313A • Column themostated chamber G1316A • Diode array detector G1315A • Column: Phenomenex Jupiter; 5 micron C18; 300 angstroms; • 150×2 mm; P/O 00F-4053-B0 • Column thermostat: 40° C. • Injection volume: 100 μL • Solvent A=HPLC grade water+0.1% TFA • Solvent B=HPLC grade acetonitrile+0.1% TFA
• Stop time: 17 min • Post-run time: 10 min

The mark [2] stands for this setting: HCV replicon cells, 48 hours incubation, 2% FBS, 0.5% DMSO.
The mark [3] stands for this setting: 25 nM tNS3, 25 μM KK4A, 20 μM 5AB substrate, 30° C., pH 7.8, read-out: Ki.

Sequence of HCV NS3-NS4A protease (P27958 1027-1208, other chains not shown): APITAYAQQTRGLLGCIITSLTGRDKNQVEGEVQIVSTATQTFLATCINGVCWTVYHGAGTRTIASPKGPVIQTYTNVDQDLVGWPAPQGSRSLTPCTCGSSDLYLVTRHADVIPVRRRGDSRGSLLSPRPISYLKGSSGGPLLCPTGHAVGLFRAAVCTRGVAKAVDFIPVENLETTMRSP

Turning to `CCC[C@H](NC(=O)[C@@H]1[C@H]2CC[C@H](C2)N1C(=O)[C@@H](NC(=O)[C@@H](NC(=O)c1ncc[nH]1)C1CCCCC1)C(C)(C)C)C(=O)C(=O)N[C@@H](C)c1ccccc1` [Cmpd 12], the IC50 in assay [1] (setting [2]) came out at 412 nM. Moreover, the Ki at HCV NS3-NS4A protease amounted to 68 nM.

For the molecule `C[C@H](NS(C)(=O)=O)C(=O)N[C@H](C(=O)N[C@H](C(=O)N1[C@@H]2CC[C@@H](C2)[C@H]1C(=O)N[C@@H](CC(F)F)C(=O)C(=O)NC1CC1)C(C)(C)C)C1CCCCC1` [Cmpd 10], the IC50 in assay [1] (setting [2]) came to 10000 nM. The molecule further returned a Ki at HCV NS3-NS4A protease of 28 nM.

Turning to `CCC[C@H](NC(=O)[C@@H]1[C@H]2CC[C@H](C2)N1C(=O)[C@@H](NC(=O)[C@@H](NC(=O)c1cnccn1)C1CCCCC1)C(C)C)C(=O)C(=O)NC1CC1` [Cmpd 1], in assay [1] (48 h), the IC50 was above 1000 nM. Moreover, the Ki at HCV NS3-NS4A protease (setting [3]) stood at 220 nM.

On to `CCC[C@H](NC(=O)[C@@H]1[C@H]2CC[C@H](C2)N1C(=O)[C@@H](NC(=O)[C@@H](NC(=O)c1[nH]c(C)c(C)c1C(C)=O)C1CCCCC1)C(C)(C)C)C(=O)C(=O)NC1CC1` [Cmpd 16], for which the IC50 in assay [1] (setting [2]) is below 100 nM. For the same molecule, the Ki on HCV NS3-NS4A protease amounted to 54 nM.

With `CC(C)(C)[C@H](NC(=O)[C@@H](NC(=O)c1cnccn1)C1CCCCC1)C(=O)N1C(C(=O)NC(CC(F)F)C(=O)C(=O)NC2CC2)[C@H]2CC[C@@H]1C2` (some centres unmarked) [Cmpd 3], the IC50 in assay [1] (setting [2]) came to 632 nM. Also, the affinity on HCV NS3-NS4A protease, expressed as Ki, was 63 nM.

Regarding `CCCC(NC(=O)[C@@H]1[C@H]2CC[C@H](C2)N1C(=O)[C@@H](NC(=O)[C@@H](NC(=O)[C@H](CNC(=O)OC)NC(=O)OC)C1CCCCC1)C(C)(C)C)C(=O)C(=O)N[C@@H](C)c1ccccc1` (some centres unmarked) [Cmpd 7], the IC50 in assay [1] (setting [2]) was 449 nM. At HCV NS3-NS4A protease, this molecule displayed a Ki of 49 nM.

`CCCC(NC(=O)[C@@H]1[C@H]2CC[C@H](C2)N1C(=O)[C@@H](NC(=O)[C@@H](NC(=O)[C@H](CNC(=O)OC)NC(=O)OC)C1CCCCC1)C(C)(C)C)C(=O)C(=O)NC1CC1` (some centres unmarked) [Cmpd 5]: in assay [1] (setting [2]), the IC50 worked out at 1410 nM. The molecule also had a Ki on HCV NS3-NS4A protease of 39 nM.

On to `CCCC(NC(=O)[C@@H]1[C@H]2CC[C@H](C2)N1C(=O)[C@@H](NC(=O)[C@@H](NC(=O)[C@H](C)NS(C)(=O)=O)C1CCCCC1)C(C)(C)C)C(=O)C(=O)N[C@@H](C)c1ccccc1` (some centres unmarked) [Cmpd 11], for which, in assay [1] (48 h), the IC50 came to 1230 nM. In addition, at HCV NS3-NS4A protease (setting [3]), the inhibition constant (Ki) worked out at 50 nM.

For the molecule `CCCC(NC(=O)[C@@H]1[C@H]2CC[C@H](C2)N1C(=O)[C@@H](NC(=O)[C@@H](NC(=O)[C@H](CNC(=O)OC)NC(=O)OC)C1CCCCC1)C(C)C)C(=O)C(=O)N[C@@H](C)c1ccccc1` (some centres unmarked) [Cmpd 6], in assay [1] (setting [2]), the IC50 worked out at 2650 nM. Moreover, the Ki at HCV NS3-NS4A protease turned out to be 96 nM.

Consider `CCCC(NC(=O)[C@@H]1[C@H]2CC[C@H](C2)N1C(=O)[C@@H](NC(=O)[C@@H](NC(=O)[C@H](CNC(=O)OC)NC(=O)OC)C1CCCCC1)C(C)C)C(=O)C(=O)NC1CC1` (some centres unmarked) [Cmpd 4], for which, in assay [1] (setting [2]), the IC50 was above 10000 nM. Also, the Ki on HCV NS3-NS4A protease amounted to 95 nM.

`CCC[C@H](NC(=O)[C@@H]1[C@H]2CC[C@H](C2)N1C(=O)[C@@H](NC(=O)[C@@H](NC(=O)c1ncc[nH]1)C1CCCCC1)C(C)(C)C)C(=O)C(=O)NC1CC1` [Cmpd 13]: in assay [1] (setting [2]), the IC50 is 251 nM. Besides, on HCV NS3-NS4A protease, the Ki amounted to 42 nM.

On to `CCC[C@H](NC(=O)[C@@H]1[C@H]2CC[C@H](CC2)N1C(=O)C(NC(=O)[C@@H](NC(=O)c1cnccn1)C1CCCCC1)C(C)(C)C)C(=O)C(=O)NC1CC1` (some centres unmarked) [Cmpd 14], for which the IC50 in assay [1] (setting [2]) was 1240 nM. Further, the Ki at HCV NS3-NS4A protease came to 125 nM.

On to `CCC[C@H](NC(=O)[C@@H]1[C@H]2CC[C@H](C2)N1C(=O)[C@@H](NC(=O)[C@@H](NC(=O)[C@H](C)NC(=O)C(C)(C)C)C1CCCCC1)C(C)(C)C)C(=O)C(=O)NC1CC1` [Cmpd 15], for which the IC50 in assay [1] (setting [2]) was 1300 nM. At HCV NS3-NS4A protease, this molecule returned a Ki of 66 nM.

Regarding `CCC[C@H](NC(=O)[C@@H]1[C@H]2CC[C@H](C2)N1C(=O)[C@@H](NC(=O)[C@@H](NC(=O)[C@H](C)NS(C)(=O)=O)C1CCCCC1)C(C)(C)C)C(=O)C(=O)NC1CC1` [Cmpd 9], the IC50 in assay [1] (48 h) stood at 4310 nM. The inhibition constant (Ki) on HCV NS3-NS4A protease (setting [3]) was 55 nM.

Turning to `CCCC(NC(=O)[C@@H]1[C@H]2CC[C@H](C2)N1C(=O)[C@@H](NC(=O)[C@@H](NC(=O)c1cnccn1)C1CCCCC1)C(C)(C)C)C(=O)C(=O)N[C@@H](C)c1ccccc1` (some centres unmarked) [Cmpd 8], the IC50 in assay [1] (setting [2]) amounted to 679 nM. Moreover, the inhibition constant Ki on HCV NS3-NS4A protease was found to be 110 nM.

As for `CCC[C@H](NC(=O)C1[C@H]2CC[C@H](C2)N1C(=O)[C@@H](NC(=O)[C@@H](NC(=O)c1cnccn1)C1CCCCC1)C(C)(C)C)C(=O)C(=O)NC1CC1` (some centres unmarked) [Cmpd 2], the IC50 in assay [1] (setting [2]) is 886 nM. In addition, on HCV NS3-NS4A protease, the affinity corresponds to a Ki of 90 nM.
